The text below walks through data of US7332492B2, “Amino substituted dibenzothiophene derivatives for the treatment of disorders mediated by NP Y5 receptor” (AstraZeneca AB, priority 2000, dated 2008).

In the experiment the target is T1, human neuropeptide Y5 receptor (Homo sapiens, UniProt Q15761).
T1 construct: starting at base 56 through to base 1393, to express the protein 10 amino acid residues shorter at the amino terminal end; made in house; host or cells: High 5 insect cells (baculovirus, pFASTBAC1 / Bac-to-Bac); membrane preparation
T1 sequence (Q15761 1-445): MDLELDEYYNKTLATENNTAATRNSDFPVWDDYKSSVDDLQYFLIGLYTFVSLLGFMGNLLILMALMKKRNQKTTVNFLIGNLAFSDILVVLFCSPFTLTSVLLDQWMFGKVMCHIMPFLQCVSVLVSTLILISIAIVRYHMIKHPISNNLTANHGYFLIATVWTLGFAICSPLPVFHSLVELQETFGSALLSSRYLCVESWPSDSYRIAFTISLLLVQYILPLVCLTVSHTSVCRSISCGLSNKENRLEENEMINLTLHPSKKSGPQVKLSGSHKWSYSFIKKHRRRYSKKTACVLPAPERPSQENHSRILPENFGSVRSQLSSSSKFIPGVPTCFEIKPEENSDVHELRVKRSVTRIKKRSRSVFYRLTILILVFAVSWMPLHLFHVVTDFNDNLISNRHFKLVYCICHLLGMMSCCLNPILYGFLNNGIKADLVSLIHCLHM
Description: neuropeptide Y5 receptor binding assay (125I PYY displacement). Particulars: 125I PYY binding, membranes of High 5 insect cells expressing human NPY5 receptor. On the procedure:
The activity of compounds of the invention was measured in a neuropeptide Y5 receptor binding assay as follows. Compounds were also tested in binding assays for the neuropeptide Y1 and neuropeptide Y2 receptors. Activity against these 2 receptors is contraindicated for a neuropeptide Y5 antagonist.
a) Expression of Human Neuropeptide Y5 Receptor in High 5™ Insect Cells.
High 5™ insect cells were obtained from Invitrogen (catalogue No B855-02) and stored in liquid nitrogen. Cells were revived from liquid nitrogen storage and grown at 28° C. in 100 ml ExCell 405 (JRH Biosciences) serum free medium in a 250 ml conical flask (Corning) agitated at 140 rpm in an Innova 4330 orbital shaker (New Brunswick Scientific). Cultures were routinely sub-cultured every 3-4 days.
High 5™ insect cells were transfected with the human NPY5 receptor as follows. PCR primers were designed against the huNPY5 receptor sequence, Genbank Accession Number U56079 [Gerald et. al. (1996) Nature 382, 168-171], but starting at base 56 through to base 1393, to express the protein 10 amino acid residues shorter at the amino terminal end [see Borowsky et. al. (1998) Regulatory Peptides 75-76, 45-53]. These primers were used to amplify the huNPY5 receptor from human placenta genomic DNA by PCR. […]

`CC(CN1CCOCC1)C(=O)Nc1ccc2sc3ccccc3c2c1` (stereo not shown) [Example 16] yielded an IC50 of 94 nM.

A word on the IC50: it is the concentration that inhibits the measured activity by half. Low values mean greater potency, high ones weaker potency.
